Data published in patent US20200236940A1, “2-(HET)ARYL-SUBSTITUTED FUSED HETEROCYCLE DERIVATIVES AS PESTICIDES” (Bayer Aktiengesellschaft, priority 2017, published 2020).

How the values were obtained:
Type in all cases: in vivo
Myzus persicae [1] = assay: Myzus persicae spray test (MYZUPE), Chinese cabbage leaf discs; settings: foliar, 120 h; for pest or weed control at 20 g/ha: application rate 20 g/ha; for pest or weed control at 20 g/ha / pest or weed control at 100 g/ha: after 5 days, read-out: efficacy; for pest or weed control at 100 g/ha: application rate 100 g/ha
Protocol: Myzus persicae—Spray Test [table] To produce a suitable active ingredient formulation, 1 part by weight of active ingredient is dissolved with the specified parts by weight of solvent and made up to the desired concentration with water containing an emulsifier concentration of 1000 ppm. To produce further test concentrations, the formulation is diluted with emulsifier-containing water. Discs of Chinese cabbage leaves (Brassica pekinensis) infested by all stages of the green peach aphid (Myzus persicae) are sprayed with an active ingredient formulation of the desired concentration. After 5 days, the efficacy in % is determined. 100% means that all the aphids have been killed; 0% means that no aphids have been killed. Myzus persicae—Spray Test (MYZUPE) [table] To produce a suitable active ingredient formulation, 1 part by weight of active ingredient is dissolved with the specified parts by weight of solvent and made up to the desired concentration with water containing an emulsifier concentration of 1000 ppm. To produce further test concentrations, the formulation is diluted with emulsifier-containing water. Discs of Chinese cabbage leaves (Brassica pekinensis) infested by all stages of the green peach aphid (Myzus persicae) are sprayed with an active ingredient formulation of the desired concentration. After the desired period of time, the efficacy in % is determined. 100% means that all the aphids have been killed; 0% means that no aphids have been killed.

Myzus persicae [2] = assay: Myzus persicae oral test; settings: 120 h, application rate 4 ppm, after 5 days, read-out: efficacy
Protocol: Myzus persicae—Oral Test Solvent: 100 parts by weight of acetone To produce a suitable active ingredient formulation, 1 part by weight of active ingredient is dissolved with the stated parts by weight of solvent and made up to the desired concentration with water. 50 μl of the active ingredient formulation are transferred into microtitre plates and made up to a final volume of 200 μl with 150 μl of IPL41 insect medium (33%+15% sugar). Subsequently, the plates are sealed with parafilm, which a mixed population of green peach aphids (Myzus persicae) within a second microtitre plate is able to puncture and imbibe the solution. After 5 days, the efficacy in % is determined. 100% means that all the aphids have been killed; 0% means that no aphids have been killed.

Phaedon cochleariae = Phaedon cochleariae spray test, Chinese cabbage leaf discs; settings: foliar, 168 h, application rate 100 g/ha, after 7 days, larvae, read-out: efficacy
Protocol: Phaedon cochleariae—Spray Test
To produce a suitable active ingredient formulation, 1 part by weight of active ingredient is dissolved with the specified parts by weight of solvent and made up to the desired concentration with water containing an emulsifier concentration of 1000 ppm. To produce further test concentrations, the formulation is diluted with emulsifier-containing water.
After 7 days, the efficacy in % is determined. 100% means that all the beetle larvae have been killed; 0% means that no beetle larvae have been killed.

Spodoptera frugiperda [3] = assay: Spodoptera frugiperda spray test, maize leaf discs; settings: for Emax at 100 g/ha: Spodoptera frugiperda, foliar, 168 h, SPODFR, 100 g of ai/ha, 7 dat, read-out: % efficacy; for efficacy: application rate 100 g/ha, after 7 days, caterpillars
Protocol: Spodoptera frugiperda—Spray Test [table] To produce a suitable active ingredient formulation, 1 part by weight of active ingredient is dissolved with the specified parts by weight of solvent and made up to the desired concentration with water containing an emulsifier concentration of 1000 ppm. To produce further test concentrations, the formulation is diluted with emulsifier-containing water. Leaf discs of maize (Zea mays) are sprayed with an active ingredient formulation of the desired concentration and, after drying, populated with caterpillars of the armyworm (Spodoptera frugiperda). After 7 days, the efficacy in % is determined. 100% means that all the caterpillars have been killed; 0% means that no caterpillar has been killed.

Lucilia cuprina = Lucilia cuprina test; settings: after 2 days, L1 larvae
Protocol: Lucilia cuprina Test Solvent: dimethyl sulfoxide To produce a suitable active ingredient formulation, 10 mg of active ingredient are mixed with 0.5 ml of dimethyl sulfoxide, and the concentrate is diluted with water to the desired concentration. About 20 L1 larvae of the Australian sheep blowfly (Lucilia cuprina) are transferred into a test vessel containing minced horsemeat and the active ingredient formulation of the desired concentration. After 2 days, the kill in % is determined. 100% means that all the larvae have been killed; 0% means that no larvae have been killed.

Ctenocephalides felis = Ctenocephalides felis oral test; settings: application rate 100 ppm, after 2 days
Protocol: Ctenocephalides felis—Oral Test Solvent: dimethyl sulfoxide To produce a suitable active ingredient formulation, 10 mg of active ingredient are mixed with 0.5 ml of dimethyl sulfoxide. Dilution with citrated cattle blood gives the desired concentration. About 20 unfed adult cat fleas (Ctenocephalides felis) are placed into a chamber which is closed at the top and bottom with gauze. A metal cylinder whose bottom end is closed with parafilm is placed onto the chamber. The cylinder contains the blood/active ingredient formulation, which can be imbibed by the fleas through the parafilm membrane. After 2 days, the kill in % is determined. 100% means that all of the fleas have been killed; 0% means that none of the fleas have been killed.

Myzus persicae [4] = assay: Myzus persicae spray test, bell pepper plants; settings: application rate 20 ppm, after 6 days
Protocol: Myzus persicae—Spray Test Solvent: 14 parts by weight of dimethylformamide Emulsifier: alkylaryl polyglycol ether To produce a suitable active ingredient formulation, 1 part by weight of active ingredient is dissolved with the specified parts by weight of solvent and made up to the desired concentration with water containing an emulsifier concentration of 1000 ppm. To produce further test concentrations, the formulation is diluted with emulsifier-containing water. If the addition of ammonium salts or/and penetrants is required, these are each added in a concentration of 1000 ppm to the formulation solution. Bell pepper plants (Capsicum annuum) severely infested with the green peach aphid (Myzus persicae) are treated by spraying with the active ingredient formulation in the desired concentration. After 6 days, the kill in % is determined. 100% means that all of the aphids have been killed; 0% means that none of the aphids have been killed.

Nezara viridula = Nezara viridula spray test; settings: 96 h, NEZAVI, 500 g of ai/ha, 4 dat, read-out: % efficacy
Protocol: Nezara viridula—Spray Test [table] To produce a suitable active ingredient formulation, 1 part by weight of active ingredient is dissolved with the specified parts by weight of solvent and made up to the desired concentration with water containing an emulsifier concentration of 1000 ppm. To produce further test concentrations, the formulation is diluted with emulsifier-containing water. If the addition of ammonium salts or/and penetrants is required, these are each added in a concentration of 1000 ppm to the formulation solution. Barley plants (Hordeum vulgare) infected with larvae of the Southern green shield bug (Nezara viridula) are sprayed with an active ingredient formulation of the desired concentration. After the desired period of time, the efficacy in % is determined. 100% means that all of the shield bugs have been killed; 0% means that none of the shield bugs have been killed.

Spodoptera frugiperda [5] = assay: Spodoptera frugiperda spray test (SPODFR S), cotton leaves; settings: 168 h, 7 dat, read-out: % efficacy
Protocol: Spodoptera frugiperda—Spray Test (SPODFR S) Solvent: 14 parts by weight of dimethylformamide Emulsifier: alkylaryl polyglycol ether To produce a suitable active ingredient formulation, 1 part by weight of active ingredient is dissolved with the specified parts by weight of solvent and made up to the desired concentration with water containing an emulsifier concentration of 1000 ppm. To produce further test concentrations, the formulation is diluted with emulsifier-containing water. If the addition of ammonium salts or/and penetrants is required, these are each added in a concentration of 1000 ppm to the formulation solution. Cotton leaves (Gossypium hirsutum) are sprayed with an active ingredient formulation of the desired concentration and populated with caterpillars of the armyworm (Spodoptera frugiperda). After the desired time, the kill in % is determined. 100% means that all caterpillars have been killed; 0% means that none of the caterpillars have been killed.

Structure (SMILES)	pest or weed control at 20 g/ha (Myzus persicae [1]) [%]	pest or weed control at 4 ppm (Myzus persicae [2]) [%]	pest or weed control at 100 g/ha (Phaedon cochleariae) [%]	also measured
CCS(=O)(=O)c1ccc(NC(=O)NC)nc1-c1nc2cc(C(F)(F)F)nc(C)c2n1C [Example I-002]	90	100	–	–
CCS(=O)(=O)c1ccc(-n2cc(Cl)cn2)nc1-c1nc2cc(C(F)(F)F)nc(C)c2n1C [Example I-004]	–	100	100	–
CCS(=O)(=O)c1ccc(-n2cncn2)nc1-c1nc2cc(C(F)(F)F)nc(Cl)c2n1C [Example I-005]	100	100	–	pest or weed control at 100 g/ha (Myzus persicae [1]): 100%; Emax at 100 g/ha (Spodoptera frugiperda [3]): 100%; efficacy (Spodoptera frugiperda [3]): 100%
CCS(=O)(=O)c1ccc(NC(=O)NC)nc1-c1nc2cc(C(F)(F)F)nc(Cl)c2n1C [Example I-006]	90	100	–	pest or weed control at 100 g/ha (Myzus persicae [1]): 90%
CCS(=O)(=O)c1ccc(N)nc1-c1nc2cc(C(F)(F)F)nc(C#N)c2n1C [Example I-007]	90	100	100	–
CCS(=O)(=O)c1ccc(-n2cc(C#N)cn2)nc1-c1nc2cc(C(F)(F)F)nc(C)c2n1C [Example I-008]	–	100	100	efficacy (kill) (Lucilia cuprina; application rate 100 ppm): 100%; efficacy (kill) (Ctenocephalides felis): 100%
CCS(=O)(=O)c1ccc(-n2cc(Cl)cn2)nc1-c1nc2cc(C(F)(F)F)nc(C#N)c2n1C [Example I-009, 2-[6-(4-chloro-1H-pyrazol-1-yl)-3-(ethylsulfonyl)pyridin-2-yl]-3-methyl-6-(trifluoromethyl)-3H-imidazo[4,5-c]pyridine-4-carbonitrile]	–	90	–	efficacy (kill) (Lucilia cuprina; application rate 20 ppm): 100%; efficacy (kill) (Lucilia cuprina; application rate 100 ppm): 100%
CCS(=O)(=O)c1ccc(NC(=O)NC)nc1-c1nc2cc(C(F)(F)F)nc(C#N)c2n1C [Example I-010]	–	100	–	efficacy (kill) (Myzus persicae [4]): 99%; efficacy (kill) (Ctenocephalides felis): 100%
CCS(=O)(=O)c1ccc(-n2ncn(-c3ccc(Cl)cc3)c2=O)nc1-c1nc2cc(C(F)(F)F)nc(C#N)c2n1C [Example I-011, 2-{6-[4-(4-chlorophenyl)-5-oxo-4,5-dihydro-1H-1,2,4-triazol-1-yl]-3-(ethylsulfonyl)pyridin-2-yl}-3-methyl-6-(trifluoromethyl)-3H-imidazo[4,5-c]pyridine-4-carbonitrile]	–	100	100	efficacy (kill) (Lucilia cuprina; application rate 20 ppm): 100%; efficacy (kill) (Lucilia cuprina; application rate 100 ppm): 100%; efficacy (kill) (Ctenocephalides felis): 100%; Emax at 500 g/ha (Nezara viridula): 90%
CCS(=O)(=O)c1ccc(-n2cncn2)nc1-c1nc2cc(C(F)(F)F)nc(C#N)c2n1C [Example I-012]	–	100	83	efficacy (kill) (Myzus persicae [4]): 100%
CCS(=O)(=O)c1ccc(C(=O)NC)nc1-c1nc2cc(C(F)(F)F)nc(C)c2n1C [Example I-014]	90	100	–	–
CCS(=O)(=O)c1ccc(C(=O)N(C)C)nc1-c1nc2cc(C(F)(F)F)nc(C)c2n1C [Example I-015]	90	100	–	pest or weed control at 100 g/ha (Myzus persicae [1]): 90%
CCc1nc(C(F)(F)F)cc2nc(-c3nc(-n4ncn(-c5ccc(Cl)cc5)c4=O)ccc3S(=O)(=O)CC)n(C)c12 [Example I-016]	–	100	100	Emax at 4 ppm (Spodoptera frugiperda [5]): 100%; efficacy (Spodoptera frugiperda [3]): 100%; Emax at 500 g/ha (Nezara viridula): 50%
C=Cc1nc(C(F)(F)F)cc2nc(-c3nc(-n4ncn(-c5ccc(Cl)cc5)c4=O)ccc3S(=O)(=O)CC)n(C)c12 [Example I-017]	90	100	–	efficacy (Spodoptera frugiperda [3]): 100%
CCS(=O)(=O)c1ccc(-n2cncn2)nc1-c1nc2cc(C(F)(F)F)ncc2n1C [Prior art WO 2016/124563 (Ex. 32), reference compound]	–	–	–	Emax at 100 g/ha (Spodoptera frugiperda [3]): 50%
CCS(=O)(=O)c1ccc(-n2ccnn2)nc1-c1nc2cc(C(F)(F)F)ncc2n1C [Prior art according to WO 2016/124563, reference compound]	–	–	–	Emax at 4 g/ha (Myzus persicae [1]; MYZUPE, 4 g of ai/ha, 5 dat, read-out: % efficacy): 0%
